According to ChEMBL document CHEMBL5625232, “Development of selective class I protein arginine methyltransferase inhibitors through fragment-based drug design approach” (Eur J Med Chem, 2023):
Converted amounts (≈) assume the structure as drawn. Each block holds one molecule with its values, some of them ahead of it. The source made the active and inactive calls. The rule behind the calls is not given here.

Key:
[1] = target: T1, Histone-lysine N-methyltransferase SUV39H1 (Homo sapiens, UniProt O43463); test: Displacement of 3H-SAM from SUV39H1 (unknown origin) using biotinylated-histone H3 peptide as substrate incubated for 45 mins by SPA assay
T1 sequence (O43463 whole entry): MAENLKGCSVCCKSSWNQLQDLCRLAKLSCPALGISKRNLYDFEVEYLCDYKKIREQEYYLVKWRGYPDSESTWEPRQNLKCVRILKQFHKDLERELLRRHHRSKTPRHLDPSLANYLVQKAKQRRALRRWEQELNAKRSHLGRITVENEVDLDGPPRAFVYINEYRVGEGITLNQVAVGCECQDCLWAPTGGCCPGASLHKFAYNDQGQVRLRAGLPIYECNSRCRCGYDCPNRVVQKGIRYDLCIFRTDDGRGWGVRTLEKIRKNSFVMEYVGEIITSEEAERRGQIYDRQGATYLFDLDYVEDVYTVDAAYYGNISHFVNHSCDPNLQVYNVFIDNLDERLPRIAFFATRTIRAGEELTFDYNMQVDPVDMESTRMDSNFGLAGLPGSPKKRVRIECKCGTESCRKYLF

[2] = target: T2, Histone-lysine N-methyltransferase SMYD3 (Homo sapiens) (UniProt Q9H7B4); test: Displacement of 3H-SAM from SMYD3 (unknown origin) using biotinylated-MAP3K2 as substrate at 30 uM incubated for 45 mins by SPA assay relative to control
T2 sequence (whole entry): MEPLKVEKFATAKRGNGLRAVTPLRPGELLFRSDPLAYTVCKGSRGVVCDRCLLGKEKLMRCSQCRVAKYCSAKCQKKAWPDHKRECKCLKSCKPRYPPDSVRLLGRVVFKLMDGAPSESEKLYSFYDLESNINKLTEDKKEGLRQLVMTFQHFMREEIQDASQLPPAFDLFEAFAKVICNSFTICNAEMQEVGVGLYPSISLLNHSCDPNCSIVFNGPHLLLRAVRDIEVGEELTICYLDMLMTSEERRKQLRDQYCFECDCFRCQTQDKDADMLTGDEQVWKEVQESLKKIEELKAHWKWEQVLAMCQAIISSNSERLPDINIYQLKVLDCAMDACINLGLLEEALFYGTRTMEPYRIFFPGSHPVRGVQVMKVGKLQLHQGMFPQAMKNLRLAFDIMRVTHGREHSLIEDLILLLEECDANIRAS

[3] = target: Histone-lysine N-methyltransferase, H3 lysine-79 specific (Homo sapiens) (UniProt Q8TEK3); test: Displacement of 3H-SAM from DOT1L (unknown origin) at 30 uM incubated for 1 hr in presence of substrate by SPA assay relative to control
[4] = target: T3, Protein arginine N-methyltransferase 1 (Homo sapiens, UniProt Q99873); test: Displacement of 3H-SAM from PRMT1 (unknown origin) using biotinylated-histone H4 peptide as substrate upto 200 uM incubated for 45 mins by SPA assay
Target sequence in this assay (Q99873 whole entry, looked up): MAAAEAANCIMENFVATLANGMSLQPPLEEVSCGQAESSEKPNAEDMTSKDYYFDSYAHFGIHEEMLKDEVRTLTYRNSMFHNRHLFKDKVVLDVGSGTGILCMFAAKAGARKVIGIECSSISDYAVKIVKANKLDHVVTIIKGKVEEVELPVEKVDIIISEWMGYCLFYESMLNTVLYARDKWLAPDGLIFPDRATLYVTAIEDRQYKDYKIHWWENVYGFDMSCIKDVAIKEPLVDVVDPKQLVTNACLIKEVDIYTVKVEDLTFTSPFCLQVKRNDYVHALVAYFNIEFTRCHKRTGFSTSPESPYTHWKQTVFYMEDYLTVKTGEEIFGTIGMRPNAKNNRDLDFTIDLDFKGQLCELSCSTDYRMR

[5] = target: T4, Histone-lysine N-methyltransferase SUV39H1 (Homo sapiens) (UniProt O43463); test: Displacement of 3H-SAM from SUV39H1 (unknown origin) using biotinylated-histone H3 peptide as substrate at 10 uM incubated for 45 mins by SPA assay relative to control
T4 sequence (whole entry): T1 sequence (O43463 whole entry)

[6] = target: T2, Histone-lysine N-methyltransferase SMYD3 (Homo sapiens); test: Displacement of 3H-SAM from SMYD3 (unknown origin) using biotinylated-MAP3K2 as substrate at 10 uM incubated for 45 mins by SPA assay relative to control
[7] = target: T5, Histone-lysine N-methyltransferase SMYD3 (Homo sapiens, UniProt Q9H7B4); test: Displacement of 3H-SAM from SMYD3 (unknown origin) using biotinylated-MAP3K2 as substrate incubated for 45 mins by SPA assay
T5 sequence (Q9H7B4 whole entry): T2 sequence (whole entry)

[8] = Lipophilicity, log D of compound in 1-octanol at pH 7.4 incubated for 4 hrs by HPLC-UV analysis; assay type: physicochemical; conditions: 1-octanol/aqueous phase
[9] = target: T3, Protein arginine N-methyltransferase 1; test: Displacement of 3H-SAM from PRMT1 (unknown origin) using biotinylated-histone H4 peptide as substrate incubated for 45 mins by SPA assay
Target sequence in this assay (Q99873 whole entry): as the sequence (Q99873 whole entry, looked up) above

[10] = target: T3, Protein arginine N-methyltransferase 1; test: Displacement of 3H-SAM from PRMT1 (unknown origin) using biotinylated-histone H4 peptide as substrate at 30 uM incubated for 45 mins by SPA assay relative to control
Target sequence in this assay (Q99873 whole entry, looked up): as above

[11] = target: T4, Histone-lysine N-methyltransferase SUV39H1 (Homo sapiens); test: Displacement of 3H-SAM from SUV39H1 (unknown origin) using biotinylated-histone H3 peptide as substrate at 30 uM incubated for 45 mins by SPA assay relative to control
[12] = target: T4, Histone-lysine N-methyltransferase SUV39H1 (Homo sapiens); test: Displacement of 3H-SAM from SUV39H1 (unknown origin) using biotinylated-histone H3 peptide as substrate upto 200 uM incubated for 45 mins by SPA assay
[13] = target: T2, Histone-lysine N-methyltransferase SMYD3 (Homo sapiens); test: Displacement of 3H-SAM from SMYD3 (unknown origin) using biotinylated-MAP3K2 as substrate upto 200 uM incubated for 45 mins by SPA assay
[14] = target: Protein arginine N-methyltransferase 6 (Homo sapiens, UniProt Q96LA8); test: Inhibition of PRMT6 (unknown origin)
[15] = target: T6, Protein arginine N-methyltransferase 8 (Homo sapiens, UniProt Q9NR22); test: Inhibition of PRMT8 (unknown origin)
[16] = target: T3, Protein arginine N-methyltransferase 1; test: Inhibition of PRMT1 (unknown origin)
Target sequence in this assay (Q99873 whole entry): as the sequence (Q99873 whole entry, looked up) above

[17] = target: T7, Histone-arginine methyltransferase CARM1 (Homo sapiens, UniProt Q86X55); test: Displacement of 3H-SAM from human PRMT4 in presence of substrate by SPA assay
T7 sequence (Q86X55 whole entry): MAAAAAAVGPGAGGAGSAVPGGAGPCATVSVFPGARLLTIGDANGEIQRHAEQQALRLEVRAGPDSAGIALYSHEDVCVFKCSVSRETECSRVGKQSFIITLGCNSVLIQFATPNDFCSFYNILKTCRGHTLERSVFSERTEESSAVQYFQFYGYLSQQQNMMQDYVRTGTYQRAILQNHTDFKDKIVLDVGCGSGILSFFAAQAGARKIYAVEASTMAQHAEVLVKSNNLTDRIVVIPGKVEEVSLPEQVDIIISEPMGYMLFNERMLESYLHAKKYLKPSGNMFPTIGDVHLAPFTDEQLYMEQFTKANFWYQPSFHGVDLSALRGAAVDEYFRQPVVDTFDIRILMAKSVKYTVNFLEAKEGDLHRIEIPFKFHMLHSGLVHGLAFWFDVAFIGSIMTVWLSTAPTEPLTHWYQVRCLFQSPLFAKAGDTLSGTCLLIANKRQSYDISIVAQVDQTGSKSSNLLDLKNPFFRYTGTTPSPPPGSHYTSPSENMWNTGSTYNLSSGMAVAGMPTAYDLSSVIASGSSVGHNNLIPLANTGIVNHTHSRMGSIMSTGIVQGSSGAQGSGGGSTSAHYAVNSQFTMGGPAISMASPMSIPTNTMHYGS

[18] = target: T6, Protein arginine N-methyltransferase 8; test: Displacement of 3H-SAM from human PRMT8 in presence of substrate by SPA assay
[19] = target: T7, Histone-arginine methyltransferase CARM1; test: Inhibition of PRMT4 (unknown origin)
[20] = Aqueous solubility of compound at pH 7.4 incubated for 24 hrs by HPLC-UV spectroscopy; assay type: physicochemical; conditions: aqueous medium

Histone-lysine N-methyltransferase, H3 lysine-79 specific (Homo sapiens), sequence (Q8TEK3 whole entry, looked up): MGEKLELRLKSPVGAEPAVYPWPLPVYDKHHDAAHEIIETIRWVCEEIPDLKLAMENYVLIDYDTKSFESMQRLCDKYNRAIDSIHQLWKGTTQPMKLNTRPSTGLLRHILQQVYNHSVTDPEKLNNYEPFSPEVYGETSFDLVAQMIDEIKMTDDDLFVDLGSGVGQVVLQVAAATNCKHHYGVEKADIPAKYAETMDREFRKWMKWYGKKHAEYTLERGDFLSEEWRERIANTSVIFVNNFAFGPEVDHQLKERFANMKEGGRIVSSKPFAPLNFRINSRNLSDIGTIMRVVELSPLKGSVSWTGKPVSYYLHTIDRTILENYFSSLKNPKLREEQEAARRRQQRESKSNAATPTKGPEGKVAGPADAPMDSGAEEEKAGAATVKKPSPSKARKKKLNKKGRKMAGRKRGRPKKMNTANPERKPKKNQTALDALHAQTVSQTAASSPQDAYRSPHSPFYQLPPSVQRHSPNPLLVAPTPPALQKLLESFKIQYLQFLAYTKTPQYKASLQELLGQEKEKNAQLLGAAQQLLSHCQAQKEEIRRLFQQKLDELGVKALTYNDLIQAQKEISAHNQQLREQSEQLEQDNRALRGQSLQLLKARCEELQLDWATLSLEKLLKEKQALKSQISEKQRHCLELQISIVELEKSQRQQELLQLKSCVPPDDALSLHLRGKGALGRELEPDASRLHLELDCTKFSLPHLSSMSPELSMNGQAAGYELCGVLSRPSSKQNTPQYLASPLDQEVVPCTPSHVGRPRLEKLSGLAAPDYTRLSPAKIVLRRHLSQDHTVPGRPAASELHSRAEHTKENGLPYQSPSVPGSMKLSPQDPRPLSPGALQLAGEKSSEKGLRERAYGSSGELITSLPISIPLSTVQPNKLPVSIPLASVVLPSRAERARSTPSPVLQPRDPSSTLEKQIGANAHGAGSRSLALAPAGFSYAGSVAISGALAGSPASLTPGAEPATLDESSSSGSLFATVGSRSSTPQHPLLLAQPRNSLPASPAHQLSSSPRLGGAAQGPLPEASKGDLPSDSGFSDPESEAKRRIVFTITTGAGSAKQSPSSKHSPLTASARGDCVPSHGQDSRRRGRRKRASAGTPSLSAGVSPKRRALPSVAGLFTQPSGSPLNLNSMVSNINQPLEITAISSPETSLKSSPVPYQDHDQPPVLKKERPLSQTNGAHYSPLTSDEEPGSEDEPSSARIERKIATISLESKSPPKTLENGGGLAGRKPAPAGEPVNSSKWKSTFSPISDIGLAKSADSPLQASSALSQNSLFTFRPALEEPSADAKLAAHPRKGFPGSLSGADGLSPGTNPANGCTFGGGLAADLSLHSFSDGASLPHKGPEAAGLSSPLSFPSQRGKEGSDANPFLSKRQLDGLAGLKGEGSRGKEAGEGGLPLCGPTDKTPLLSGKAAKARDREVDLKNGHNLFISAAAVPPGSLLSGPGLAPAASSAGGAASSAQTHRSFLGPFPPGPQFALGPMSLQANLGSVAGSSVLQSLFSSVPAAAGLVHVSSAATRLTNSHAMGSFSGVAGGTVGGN
T6 sequence (Q9NR22 whole entry): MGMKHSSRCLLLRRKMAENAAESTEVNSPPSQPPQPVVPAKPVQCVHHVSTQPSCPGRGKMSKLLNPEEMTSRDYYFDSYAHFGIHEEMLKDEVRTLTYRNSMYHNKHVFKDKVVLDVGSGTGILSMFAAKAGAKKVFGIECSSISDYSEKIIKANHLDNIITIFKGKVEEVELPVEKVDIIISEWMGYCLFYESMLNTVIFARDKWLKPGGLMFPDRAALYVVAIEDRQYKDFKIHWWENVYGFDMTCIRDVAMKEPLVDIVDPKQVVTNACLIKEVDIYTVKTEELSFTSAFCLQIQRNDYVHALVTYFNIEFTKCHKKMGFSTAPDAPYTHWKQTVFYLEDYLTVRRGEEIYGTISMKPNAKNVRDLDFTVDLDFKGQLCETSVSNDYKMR
Protein arginine N-methyltransferase 6, sequence (Q96LA8 whole entry): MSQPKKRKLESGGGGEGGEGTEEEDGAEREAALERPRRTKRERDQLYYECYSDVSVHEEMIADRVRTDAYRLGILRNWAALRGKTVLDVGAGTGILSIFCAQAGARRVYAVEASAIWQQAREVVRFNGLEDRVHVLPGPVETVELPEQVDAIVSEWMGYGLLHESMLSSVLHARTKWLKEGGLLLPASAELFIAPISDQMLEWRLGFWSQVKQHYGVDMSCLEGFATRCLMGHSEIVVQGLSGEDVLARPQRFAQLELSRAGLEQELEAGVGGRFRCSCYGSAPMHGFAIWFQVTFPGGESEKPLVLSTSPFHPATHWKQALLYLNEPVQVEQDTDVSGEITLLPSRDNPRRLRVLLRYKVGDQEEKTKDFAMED

SMILES: COCCc1ccc(OCC(O)CNC(C)C)cc1 (configuration not stated) [METOPROLOL]
logD at 4 h [8]: -0.28

SMILES: NCc1ccc(NC(=O)c2ccc3c(N4CCC(N)CC4)ncnc3c2)cc1
IC50 [1]: 7 µM | IC50 [7]: 8 µM

SMILES: NC1CCN(c2ncnc3cc(C(=O)NC4CCNCC4)ccc23)CC1
IC50 [9]: > 200 µM | IC50 [1]: > 200 µM | IC50 [7]: > 200 µM

SMILES: NCc1ccc(Nc2ncnc3cc(C(=O)N4CCC(N)C4)ccc23)cc1 (configuration not stated)
IC50 [9]: > 100 µM | IC50 [1]: > 100 µM | IC50 [7]: > 200 µM

SMILES: NC1CCN(c2ncnc3cc(C(=O)NCCN4CCNCC4)ccc23)CC1
IC50 [9]: > 100 µM | IC50 [1]: > 200 µM | IC50 [7]: > 200 µM

SMILES: NC1CCN(c2ncnc3cc(C(=O)NC4CCNC4)ccc23)CC1 (configuration not stated)
IC50 [1]: 16 µM | IC50 [7]: 60 µM

SMILES: NC1CCN(c2ncnc3cc(C(=O)NC4CCCC4)ccc23)CC1
inhibition [4]: inactive | inhibition [12]: inactive | inhibition [13]: inactive

SMILES: NCc1ccc(Nc2ncnc3cc(C(=O)NC4CCNC4)ccc23)cc1 (configuration not stated)
IC50 [1]: 47 µM | IC50 [7]: 63 µM

SMILES: CNCCNCc1c[nH]nc1-c1ccc(O[C@H]2C[C@H](OCCC3CCCCC3)C2)cc1
IC50 [14]: 0.01 µM | IC50 [15]: 0.223 µM | IC50 [16]: 0.119 µM

SMILES: CC(C)Oc1ccc(-c2c[nH]cc2CN(C)CCN)cc1
IC50 [17]: 45 µM | IC50 [18]: 9 µM

SMILES: NCc1ccc(Nc2ncnc3cc(C(=O)NC4CCNCC4)ccc23)cc1
IC50 [9]: > 200 µM | IC50 [1]: > 200 µM | IC50 [7]: > 100 µM

SMILES: CCCSc1ccc2nc(NC(=O)OC)[nH]c2c1 [ALBENDAZOLE]
solubility at 24 h [20]: 2.2 µg/mL (≈ 8.29 µM)

Results, then the molecule that gave them:

IC50 [1]: 16 µM | inhibition [2]: < 25% | inhibition [3]: 10%
SMILES: CN(C)CCN1CCC(NC(=O)c2ccc3c(Nc4ccc(CN)cc4)ncnc3c2)C1 (configuration not stated)

inhibition [4]: inactive | inhibition [5]: < 25% | inhibition [6]: < 25%
SMILES: CN1CCC(NC(=O)c2ccc3c(Nc4ccc(CN)cc4)ncnc3c2)C1 (configuration not stated)

IC50 [1]: 35 µM | IC50 [7]: 74 µM
SMILES: NCc1ccc(Nc2ncnc3cc(C(=O)NCCN4CCNCC4)ccc23)cc1

IC50 [1]: 23 µM | inhibition [2]: < 25% | inhibition [3]: 15%
SMILES: CNCCNC(=O)c1ccc2c(Nc3ccc(CN)cc3)ncnc2c1

IC50 [1]: 22 µM | inhibition [10]: < 25% | inhibition [2]: < 25% | inhibition [3]: 5%
SMILES: CN(C)CCNC(=O)c1ccc2c(Nc3ccc(CN)cc3)ncnc2c1

inhibition [10]: < 25% | inhibition [11]: < 25% | inhibition [2]: < 25% | inhibition [3]: 17%
SMILES: CN1CCN(CCNC(=O)c2ccc3c(Nc4ccc(CN)cc4)ncnc3c2)CC1

IC50 [1]: 14 µM | inhibition [10]: < 25% | inhibition [2]: < 25% | inhibition [3]: 9%
SMILES: NCc1ccc(Nc2ncnc3cc(C(=O)NCCN4CCCC4)ccc23)cc1

inhibition [5]: < 25% | inhibition [6]: < 25%
SMILES: CNCCCNC(=O)c1ccc2c(Nc3ccc(CN)cc3)ncnc2c1

IC50 [9]: 2 µM | inhibition [5]: < 25% | inhibition [6]: < 25%
SMILES: CNCCN1CCC(NC(=O)c2ccc3c(Nc4ccc(CNC)cc4)ncnc3c2)C1 (configuration not stated)

IC50 [19]: 0.005 µM
SMILES: CNCCNc1cccc(-n2nc(C(F)(F)F)cc2C(=O)NCc2ccccc2OC)c1
